Read-outs that look alike come from different tables or passages of the source.
Assays:
Penicillium glaucum = experiment: Spore germination test, Penicillium glaucum; format: cell-based; conditions: 500 ppm active substance, 48 hours at 20° C., vs untreated control, read-out: Fungitoxicity against fungi spore, Penicillium glaucum (effectiveness)
Protocol: (§1) 50 μl of a solution or suspension containing 500 ppm of the active substance are introduced into the hollow of hollow-ground slides, together with 50 μl of a spore suspension prepared by washing the spores from an agar culture with a nutrient solution containing, per liter, 10 g of sugar, 1 g of glycol, 1 g of KH2 PO4 and 0.5 g of MgSO4.
(§2) The slides are kept at 20° C. for 48 hours in a petri dish, the base of which is covered with a moistened filter paper.
(§3) The ratio of germinated and ungerminated spores is then compared with an untreated control sample.
(§4) The effectiveness is calculated as a percentage according to the following formula: [formula]
(§5) The test set-up and procedure are the same as those described in Example 5.

Botrytis cinerea [1] = experiment: Spore germination test, Botrytis cinerea; format: cell-based; conditions: 500 ppm active substance, 48 hours at 20° C., vs untreated control, read-out: Fungitoxicity against fungi spore, Botrytis cinerea (effectiveness)
Protocol: as §1, §2, §3, §4, §5

Botrytis cinerea [2] = experiment: Grape juice test against Botrytis cinerea; format: cell-based; conditions: 10 ppm active substance
Protocol: 20 ml of a nutrient solution consisting of grape juice and distilled water in a weight ratio of 1:1 are poured into glass petri dishes and the active substances listed in Table 1 are added thereto in the concentrations indicated. Each test mixture is then inoculated with 50 μl of a suspension of Botrytis spores, prepared by washing the Botrytis spores from an agar culture with distilled water.
After incubation periods of 10 and 20 days, respectively, at 20° C., the extent of fungal development on the surface of the nutrient solution is assessed.
The effectiveness is calculated as a percentage, according to the following formula: [formula] […]

Fusarium nivale = experiment: Spore germination test, Fusarium nivale; format: cell-based; conditions: Microdochium nivale; 500 ppm active substance; 48 hours at 20° C.; vs untreated control; read-out: Fungitoxicity against fungi spore, Fusarium nivale (effectiveness)
Protocol: as §1, §2, §3, §4, §5

Septoria nodorum = experiment: Spore germination test, Septoria nodorum; format: cell-based; conditions: Parastagonospora nodorum; 500 ppm active substance; 48 hours at 20° C.; vs untreated control; read-out: Fungitoxicity against fungi spore, Septoria nodorum (effectiveness)
Protocol: as §1, §2, §3, §4, §5

Tilletia tritici = experiment: Seed dressing test against wheat bunt (Tilletia tritici); format: in vivo; conditions: Tilletia caries, read-out: % effectiveness (percentage germination inhibition)
Protocol: Healthy wheat seed is uniformly infected with spores of Tilletia tritici.The infected seed is subsequently dressed carefully with the active substances according to the invention, prepared in the form of dry dressings.
After being dressed, the wheat grains are placed in dishes of damp earth. Incubation takes place in a drying cupboard at from 14° to 17° C. After 48 hours, the spores adhering to the grains are removed by pressing the grains into loam/earth.
After incubation for a further eight days at from 14° to 17° C. in the drying cupboard, the ratio of germinated and ungerminated spores as, compared with an untreated control, is determined under a binocular microscope.
The action of the active substances according to the invention, is given as percentage germination inhibition. […]

Alternaria solani = experiment: Spore germination test, Alternaria solani; format: cell-based; conditions: 500 ppm active substance, 48 hours at 20° C., vs untreated control, read-out: Fungitoxicity against fungi spore, Alternaria solani (effectiveness)
Protocol: as §1, §2, §3, §4, §5

[3] = 240 h, 10 days at 20° C., read-out: % effectiveness after 10 days
[4] = 480 h, 20 days at 20° C., read-out: % effectiveness after 20 days

SMILES | inhibition of growth at 500 ppm (Penicillium glaucum) | inhibition of growth at 500 ppm (Botrytis cinerea [1]) | inhibition of growth at 10 ppm (Botrytis cinerea [2]; [3]) | inhibition of growth at 10 ppm (Botrytis cinerea [2]; [4]) | inhibition of growth at 500 ppm (Fusarium nivale) | inhibition of growth at 500 ppm (Septoria nodorum) | inhibition at 100 ppm (Tilletia tritici) | inhibition of growth at 500 ppm (Alternaria solani)
O=C1CC(C2C=CCCC2)C(=O)N1c1cc(Cl)cc(Cl)c1 (centres unmarked) [2-(cyclohex-2-en-1-yl)-succinic acid N--(3,5-dichlorophenyl)imide, reference compound] | 0% | 25% | 0% | 0% | 0% | 30% | 0% | 30%
CCC=CCSC1CC(=O)N(c2cc(Cl)cc(Cl)c2)C1=O (centres unmarked) [2-(pent-2-en-1-ylmercapto)-succinic acid N--(3,5-dichlorophenyl)imide, reference compound] | 10% | 20% | 80% | 45% | 20% | 10% | 40% | 20%
CC(=O)OC1CC(=O)N(c2cc(Cl)cc(Cl)c2)C1=O (centres unmarked) [2-acetoxysuccinic acid N-(3,5-dichlorophenyl) imide] | 100% | 100% | 80% | 70% | 100% | 70% | 100% | 100%
C=CCOC1CC(=O)N(c2cc(Cl)cc(Cl)c2)C1=O (centres unmarked) [2-allyloxysuccinic acid N-(3,5-dichlorophenyl)imide] | 80% | 100% | 80% | 80% | 70% | 80% | 100% | 80%
CCOC1CC(=O)N(c2cc(Cl)cc(Cl)c2)C1=O (centres unmarked) [2-ethoxysuccinic acid N-(3,5-dichlorophenyl)imide] | 80% | 100% | 100% | 100% | 80% | – | 90% | 70%
C=CCN1C(=O)CC(OC(=O)C(C)C)C1=O (centres unmarked) [2-isobutyroxysuccinic acid N--allylimide, 2-isobutyroxysuccinic acid N-allylimide] | – | – | – | – | – | – | 80% | –
CC(C)OC1CC(=O)N(c2cc(Cl)cc(Cl)c2)C1=O (centres unmarked) [2-isopropoxysuccinic acid N-(3,5-dichlorophenyl)imide] | 100% | 100% | 100% | 100% | 50% | 50% | 100% | 70%
COCC1CC(=O)N(c2cc(Cl)cc(Cl)c2)C1=O (centres unmarked) [2-methoxymethylsuccinic acid N-(3,5-dichlorophenyl)imide] | 100% | 100% | 100% | 100% | 100% | 70% | 100% | 100%
COCC1CC(=O)N(c2cccc(Cl)c2)C1=O (centres unmarked) [2-methoxymethylsuccinic acid N-(3-chlorophenyl)imide] | – | – | 90% | 80% | – | – | 80% | –
CCC(C)N1C(=O)CC(COC)C1=O (centres unmarked) [2-methoxymethylsuccinic acid N-(but-2-yl)imide] | – | – | – | – | – | – | 80% | –
COC1CC(=O)N(c2cc(Cl)cc(Cl)c2)C1=O (centres unmarked) [2-methoxysuccinic acid N-(3,5-dichlorophenyl) imide] | 80% | 100% | 100% | 100% | 90% | – | 95% | 90%
CCCc1ccc(N2C(=O)CC(OC)C2=O)cc1 (centres unmarked) [2-methoxysuccinic acid N--(4-propylphenyl)imide] | – | – | – | – | – | – | 80% | –
CC(C)NC(=O)N1CC(=O)N(c2cc(Cl)cc(Cl)c2)C1=O [Rovral, 3-(3,5-dichlorophenyl)-1-isopropylcarbymoylhydantoin, reference compound] | 60% | 100% | – | – | 0% | 30% | 75% | 0%
